Tested on: mice with heart failure
Test: Golgi stain / Sholl analysis of cortical neuron dendrite morphology in heart failure mice
Type: in vivo, mouse
Settings: 3 mg/kg i.p. daily for 2 weeks
Text: Brains were perfused with heparinized saline via transcardiac perfusion, isolated and processed stained utilizing a commercially available Rapid GolgiStain kit (FD NeuroTechnologies Inc.; Columbia, USA). The kit uses a modified Golgi-Cox staining procedure originally described by Glaser and Van der Loos (24). Briefly, isolated brain tissue samples were immersed in a kit-provided solution containing mercuric chloride, potassium dichromate and potassium chromate in the dark for 8 days; this was followed by a 6-day incubation with tissue protection solution. The brain samples were then washed, embedded in 4% low gelling agarose, sectioned in the coronal plane (150 μm thickness; Campden Instruments 7000 smz-2 vibrating microtome) and mounted onto gelatin-coated glass slides. The staining procedure was then completed using kit-provided developing/staining reagents, according to the manufacturer's instructions. […] We analyzed both the basal and apical dendrite networks of pyramidal cortical neurons from the frontal cortex, using a quantitative approach originally described by Shall (25). We utilized Image J software coupled with the semi-automated Simple Neurite Tracer plugin (both freely available from the NIH) to identify and digitally isolate the dendrite networks of a single cortical neuron from a 200× magnification hyperstack image. The center of the soma was marked with the pointer tool; dendrite morphology was then characterized by Sholl analysis (see https://imagej.net/Sholl_Analysis, version 3.7.4), using 5 μm intervals to a maximal radius of 300 μm. This analysis characterizes dendrite morphology in terms of dendrite intersections (i.e., branching) and dendrite length. For each treatment group, 2-4 neurons per mouse from 4 mice were analyzed under blinded conditions. To assess dendritic spine density (i.e., the number of small protrusions found on dendrites), we imaged 3rd branch order dendritic segments at 100× magnification. Spine density was measured as the number of spines per segment for the following segments: 20-50 μm from soma; 30-60 μm from soma; 50-80 μm from soma; and 60-100 μm from soma). This “sliding measurement” approach permits an assessment of how spine density changes over the length of dendritic branch. For each treatment group, spine density was measured in 2-4 pyramidal cortical neurons (2-4 third order branches per neuron) per mouse from 3-4 mice per group, under blinded conditions.

For `O=C(Nc1ncc(C(c2ccccc2Cl)N2CCC(O)C2)s1)C1(c2ccc3c(c2)OCO3)CC1` (centres unmarked) [C18, 1-(benzo[d][1,3]dioxol-5-yl)-N-(5-((2-chlorophenyl)(3-hydroxypyrrolidin-1-yl)methyl)thiazol-2-yl)cyclopropanecarboxamide], the “mean apical dendrite length (maximum radius), HF-induced reduction” value was “normalized”, the “mean basal dendrite length (maximum radius), HF-induced reduction” value was “normalized” and the “apical dendrite branching morphology (Sholl analysis)” value (HF mice, sham vs HF vs HF+C18) was “No differences”. The “basal dendrite branching morphology (Sholl analysis)” value (HF mice, sham vs HF vs HF+C18) was “no differences” and the “mean apical dendrite spine density at 60-100 μm from soma, group difference” value (HF mice, sham vs HF vs HF+C18) was “does not reach statistical significance”.
